Laboratory results as given in US7262173B2, “Chemosensitizing with liposomes containing oligonucleotides” (Georgetown University, priority 1997, dated 2007).

How the values were obtained:
SQ-20B cells = assay: Intracellular raf ODN stability assay (PC/CHOL/DDAB liposomes); type: cell-based, human; conditions: 10 μM for 4 hours, then 20% FBS medium up to 24 hours; denaturing gel
Method: FIG. 2: (a) Time-course of cellular uptake of LE-ATG-AS raf ODN (SEQ ID NO:1), SQ-20B cells were incubated with ^32P-5 end labeled and an excess of unlabeled LE-ATG-AS raf ODN (SEQ ID NO:1) (10 μM) for indicated times as described in the experimental procedures. Results are mean±s.d from two independent experiments each performed in duplicate, (b) Intracellular stability of LE-ATG-AS raf ODN (SEQ ID NO:1). Cells were incubated with ^32P-end labeled and an excess of unlabeled LE-ATG-AS raf ODN (SEQ ID NO:1) (10 μM in 1% FBS containing medium for […], washed with PBS and then incubations continued in 20% FBS containing medium for 0 hour (lane 2), 2 hours (lane 3), 8 hours (lane 4), 12 hours (lane 5), and 24 hours (lane 6). Cells were lysed and ODNs in various samples were analyzed by denaturing gel electrophoresis as explained in the experimental procedures. Lane 2, radiolabeled control LE-ATG-AS raf ODN (SEQ ID NO: 1); 15-mer, ATG-AS raf ODN (SEQ ID NO:1) migrations of xylene cyanol (XC) and bromophenol blue (BP) are indicated.
For ODN stability studies, cells were seeded and incubated with 10 μM ^32P-labeled LE-ATG-AS raf ODN (SEQ ID NO:1) or ATG-AS raf ODN (SEQ ID NO:1) (1×10^6 c.p.m./ml) for 4 h at 37° C. in 1% FBS containing medium. […] ODNs were extracted with phenol: chloroform, and the aqueous fractions were collected and aliquots were analyzed by scintillation counting. […]

[1] = Tissue distribution of raf ODN after i.v. injection; type: in vivo, Balb/c nu/nu mice; conditions: 30 mg/kg i.v., free ODN; data not shown
Method: FIG. 4: Tissue distribution profiles of LE-ATG-AS raf ODN (SEQ ID NO:1).
Male Balb/c nu/nu mice (Charles River, Raleigh, N.C., USA; 10–12 weeks old) were maintained in the Research Resources Facility of the Georgetown University according to accredited procedure, and fed purina chow and water ad libitum. […] At 5 min, 15 min, 30 min, 1 h, 2 h, 4 h, 8 h, 24 h and 48 h after injection, one animal in each group was bled from the retro-orbital sinus into heparinized tubes under anesthesia, and killed by cervical dislocation.
The extracts were loaded on to 20% polyacrylamide/3 M urea gels and electrophoresed in TBE buffer. […] The radiolabeled probe was generated by 5′-end-labeling of ATG-S′ raf ODN (SEQ ID NO:3) with γ^32-P-ATP using T4 polynucleotide kinase and purification over Chroma Spin-10 columns (Clontech, Palo Alto, Calif., and USA). […] The autoradiographs were scanned using a computer program (ImageQuant software, Molecular Dynamics, Sunnyvale, Calif., and USA), and the amounts of ATG-AS raf ODN (SEQ ID NO:1) in various samples were calculated by comparison to standards.

Raf-1 [2] = assay: Raf-1 expression in normal mouse tissues after i.v. ODN; type: in vivo, Balb/c nu/nu mice; conditions: i.v. 6 mg/kg daily for 5 days
Method: (§1) FIG. 7: Effects of intravenous administration of LE-ATG-AS raf ODN (SEQ ID NO:1) our Raf-1 expression in normal and tumor tissues. Raf-1 expression was examined in liver, kidneys and SQ-20B tumor xenograft of Balb/c nu/nu mice after i.v. injections of 6 mg/kg daily dose of LE-ATG-AS raf ODN (SEQ ID NO:1) (AS) or LE-ATG-S raf ODN (SEQ ID NO:3) (S) for five consecutive days. Control mice (C) received normal saline. Representative data showing Raf-1 expression in lysates normalized for protein content by immunoprecipitation and immunoblotting (top). Quantification data are shown as mean±s.d. from three mice (bottom).
Logarithmically growing SQ-20B cells were injected subcutaneously (2×10^6 cells) in the flank regions on both sides in male Balb/c nu/nu mice under mild anesthesia. Tumors were allowed to grow to a mean tumor volume of 115 mm^3 before initiation of ODN treatment. Two treatment routes were followed: intravenous and intratumoral. For intravenous delivery, mice were randomly divided into six groups. […]
(§2) For in vivo expression studies, tumor tissue and organs were homogenized in the cell lysis buffer using Polytron homogenizer (Westbury, N.Y., USA). Raf-1 expression was analyzed in tissue homogenates by immunoprecipitation and immunoblotting as described above.

Raf-1 [3] = assay: Raf-1 expression in SQ-20B tumor xenografts after i.v. or intratumoral ODN; type: in vivo, human; conditions: intravenous treatment; compared with untreated controls
Method: as §1
FIG. 8: Inhibition of Raf-1 protein expression in SQ-20B tumor xenografts by intratumoral administration of LE-ATG-AS raf ODN (SEQ ID NO:1): Each animal received intratumoral injections of LE-ATG-AS raf ODN (SEQ ID NO:1) (AS) on the right flank and LE-ATG-S raf ODN (SEQ ID NO:3) (S) on the left flank at a dose of 4 mg/kg daily for seven days as explained in the experimental procedures. […] Quantification data shown are mean±s.d., from three representative mice. […]
as §2

5′-GTG-CTCCATTGATGC-3′ (antisense GTGCTCCATTGATGC; DNA, linkages s1 o12 s1 (s phosphorothioate, o phosphodiester), methylation of C not given here) [ATG-AS raf ODN, antisense ODN to translation initiation site of human c-raf-1 cDNA; one terminal base linkage at each end phosphorothioate]
intracellular integrity of ODN (SQ-20B cells): no detectable ODN at all time-points
only time at which intact ODN seen in various organs [1]: 5 min
inhibition of Raf-1 expression in normal tissues (Raf-1 [2]): No inhibition
effect on Raf-1 expression in tumor tissue (Raf-1 [3]): no effect
